{"source": "patent US5924973A", "about": "“Method of treating a disease process in a luminal structure” (The Trustees of Columbia University in the City of New York, priority 1996, dated 1999)", "key": {"[1]": {"experiment": "Dual label excretion studies of 188Re-MAG3 and 99mTc-MAG3 in rats (urine, feces)", "assay_type": "in vivo", "conditions": "simultaneously injected in rats", "text": "Comparison of the Excretion of ^188 Re-MAG3 with ^99 mTc-MAG3 in rats\nDual Label Excretion Studies of ^188 Re-MAG3 and ^99m Tc-MAG3 in Rats"}, "[2]": {"experiment": "Biodistribution of 99mTc-MAG3 and 188Re-MAG3 in a dual label study, tail vein injection", "assay_type": "in vivo, rats", "conditions": "± standard deviation", "text": "Biodistribution Data for ^99m Tc-MAG3 and ^188 Re-MAG3 in a dual label study"}}, "data": [{"compound": "O=C(O)C[N]1C(=O)C[N]2C(=O)C[N]3C(=O)C[S][99Tc-]132=[O]", "note": "[^99m Tc-MAG3, reference compound]", "values": [{"measurement": "distribution and elimination, 99mTc-MAG3 versus 188Re-MAG3", "setting": "[1]", "result": "identical"}, {"measurement": "Biodistribution Data for ^99m Tc-MAG3, blood", "setting": "[2]; 2 h", "result": "0.18 ± 0.02", "unit": "% inj. dose/g tissue"}, {"measurement": "Biodistribution Data for ^99m Tc-MAG3, blood", "setting": "[2]; 6 h", "result": "0.13 ± 0.00", "unit": "% inj. dose/g tissue"}, {"measurement": "Biodistribution Data for ^99m Tc-MAG3, blood", "setting": "[2]; 24 h", "result": "0.05 ± 0.00", "unit": "% inj. dose/g tissue"}, {"measurement": "Biodistribution Data for ^99m Tc-MAG3, bone", "setting": "[2]; 2 h", "result": "0.05 ± 0.02", "unit": "% inj. dose/g tissue"}, {"measurement": "Biodistribution Data for ^99m Tc-MAG3, bone", "setting": "[2]; 6 h", "result": "0.03 ± 0.03", "unit": "% inj. dose/g tissue"}, {"measurement": "Biodistribution Data for ^99m Tc-MAG3, bone", "setting": "[2]; 24 h", "result": "0.02 ± 0.01", "unit": "% inj. dose/g tissue"}, {"measurement": "Biodistribution Data for ^99m Tc-MAG3, contents of l.i.", "setting": "[2]; 2 h", "result": "0.72 ± 0.18", "unit": "% inj. dose/g tissue"}, {"measurement": "Biodistribution Data for ^99m Tc-MAG3, contents of l.i.", "setting": "[2]; 6 h", "result": "1.16 ± 0.23", "unit": "% inj. dose/g tissue"}, {"measurement": "Biodistribution Data for ^99m Tc-MAG3, contents of l.i.", "setting": "[2]; 24 h", "result": "0.05 ± 0.01", "unit": "% inj. dose/g tissue"}, {"measurement": "Biodistribution Data for ^99m Tc-MAG3, contents of s.i.", "setting": "[2]; 2 h", "result": "1.84 ± 2.27", "unit": "% inj. dose/g tissue"}, {"measurement": "Biodistribution Data for ^99m Tc-MAG3, contents of s.i.", "setting": "[2]; 6 h", "result": "0.08 ± 0.03", "unit": "% inj. dose/g tissue"}, {"measurement": "Biodistribution Data for ^99m Tc-MAG3, contents of s.i.", "setting": "[2]; 24 h", "result": "0.02 ± 0.01", "unit": "% inj. dose/g tissue"}, {"measurement": "Biodistribution Data for ^99m Tc-MAG3, heart", "setting": "[2]; 2 h", "result": "0.09 ± 0.02", "unit": "% inj. dose/g tissue"}, {"measurement": "Biodistribution Data for ^99m Tc-MAG3, heart", "setting": "[2]; 6 h", "result": "0.08 ± 0.01", "unit": "% inj. dose/g tissue"}, {"measurement": "Biodistribution Data for ^99m Tc-MAG3, heart", "setting": "[2]; 24 h", "result": "0.04 ± 0.00", "unit": "% inj. dose/g tissue"}, {"measurement": "Biodistribution Data for ^99m Tc-MAG3, kidneys", "setting": "[2]; 2 h", "result": "0.61 ± 0.11", "unit": "% inj. dose/g tissue"}, {"measurement": "Biodistribution Data for ^99m Tc-MAG3, kidneys", "setting": "[2]; 6 h", "result": "0.43 ± 0.09", "unit": "% inj. dose/g tissue"}, {"measurement": "Biodistribution Data for ^99m Tc-MAG3, kidneys", "setting": "[2]; 24 h", "result": "0.40 ± 0.11", "unit": "% inj. dose/g tissue"}, {"measurement": "Biodistribution Data for ^99m Tc-MAG3, large intestine", "setting": "[2]; 2 h", "result": "0.14 ± 0.02", "unit": "% inj. dose/g tissue"}, {"measurement": "Biodistribution Data for ^99m Tc-MAG3, large intestine", "setting": "[2]; 6 h", "result": "0.18 ± 0.00", "unit": "% inj. dose/g tissue"}, {"measurement": "Biodistribution Data for ^99m Tc-MAG3, large intestine", "setting": "[2]; 24 h", "result": "0.06 ± 0.00", "unit": "% inj. dose/g tissue"}, {"measurement": "Biodistribution Data for ^99m Tc-MAG3, liver", "setting": "[2]; 2 h", "result": "0.15 ± 0.02", "unit": "% inj. dose/g tissue"}, {"measurement": "Biodistribution Data for ^99m Tc-MAG3, liver", "setting": "[2]; 6 h", "result": "0.15 ± 0.00", "unit": "% inj. dose/g tissue"}, {"measurement": "Biodistribution Data for ^99m Tc-MAG3, liver", "setting": "[2]; 24 h", "result": "0.11 ± 0.01", "unit": "% inj. dose/g tissue"}, {"measurement": "Biodistribution Data for ^99m Tc-MAG3, lung", "setting": "[2]; 2 h", "result": "0.15 ± 0.04", "unit": "% inj. dose/g tissue"}, {"measurement": "Biodistribution Data for ^99m Tc-MAG3, lung", "setting": "[2]; 6 h", "result": "0.07 ± 0.02", "unit": "% inj. dose/g tissue"}, {"measurement": "Biodistribution Data for ^99m Tc-MAG3, lung", "setting": "[2]; 24 h", "result": "0.04 ± 0.03", "unit": "% inj. dose/g tissue"}, {"measurement": "Biodistribution Data for ^99m Tc-MAG3, small intestine", "setting": "[2]; 2 h", "result": "0.12 ± 0.04", "unit": "% inj. dose/g tissue"}, {"measurement": "Biodistribution Data for ^99m Tc-MAG3, small intestine", "setting": "[2]; 6 h", "result": "0.07 ± 0.01", "unit": "% inj. dose/g tissue"}, {"measurement": "Biodistribution Data for ^99m Tc-MAG3, small intestine", "setting": "[2]; 24 h", "result": "0.03 ± 0.00", "unit": "% inj. dose/g tissue"}, {"measurement": "Biodistribution Data for ^99m Tc-MAG3, spleen", "setting": "[2]; 2 h", "result": "0.06 ± 0.02", "unit": "% inj. dose/g tissue"}, {"measurement": "Biodistribution Data for ^99m Tc-MAG3, spleen", "setting": "[2]; 6 h", "result": "0.07 ± 0.01", "unit": "% inj. dose/g tissue"}, {"measurement": "Biodistribution Data for ^99m Tc-MAG3, spleen", "setting": "[2]; 24 h", "result": "0.06 ± 0.00", "unit": "% inj. dose/g tissue"}, {"measurement": "Biodistribution Data for ^99m Tc-MAG3, thyroid", "setting": "[2]; 2 h", "result": "2.41 ± 0.95", "unit": "% inj. dose/g tissue"}, {"measurement": "Biodistribution Data for ^99m Tc-MAG3, thyroid", "setting": "[2]; 6 h", "result": "2.43 ± 0.24", "unit": "% inj. dose/g tissue"}, {"measurement": "Biodistribution Data for ^99m Tc-MAG3, thyroid", "setting": "[2]; 24 h", "result": "0.76 ± 0.59", "unit": "% inj. dose/g tissue"}]}]}
